Data taken from the NIST ThermoML archive (doi:10.1016/j.jct.2015.01.007).
± gives the expanded uncertainty stated by the source.

Conditions: for molar entropy: 101.33 kPa

SMILES: O=P([O-])([O-])[O-].[Fe+2].[Li+] [iron(II) lithium phosphate]
- molar entropy (5 K, Crystal 2, relaxation calorimetry): 0.0577 ± 0.0068 J/K/mol
- molar entropy (10 K, Crystal 2, relaxation calorimetry): 0.1645 ± 0.019 J/K/mol
- molar entropy (15 K, Crystal 2, relaxation calorimetry): 0.5534 ± 0.065 J/K/mol
- molar entropy (20 K, Crystal 2, relaxation calorimetry): 1.241 ± 0.15 J/K/mol
- molar entropy (25 K, Crystal 2, relaxation calorimetry): 2.309 ± 0.14 J/K/mol
- molar entropy (30 K, Crystal 2, relaxation calorimetry): 3.785 ± 0.23 J/K/mol
- molar entropy (35 K, Crystal 2, relaxation calorimetry): 5.708 ± 0.35 J/K/mol
- molar entropy (40 K, Crystal 2, relaxation calorimetry): 8.078 ± 0.49 J/K/mol
- molar entropy (42 K, Crystal 2, relaxation calorimetry): 9.158 ± 0.56 J/K/mol
- molar entropy (45 K, Crystal 2, relaxation calorimetry): 10.96 ± 0.67 J/K/mol
- molar entropy (46 K, Crystal 2, relaxation calorimetry): 11.63 ± 0.71 J/K/mol
- molar entropy (47 K, Crystal 2, relaxation calorimetry): 12.33 ± 0.75 J/K/mol
- molar entropy (48 K, Crystal 2, relaxation calorimetry): 13.07 ± 0.8 J/K/mol
- molar entropy (49 K, Crystal 2, relaxation calorimetry): 13.86 ± 0.84 J/K/mol
- molar entropy (49.24 K, Crystal 1, combination of DSC and relaxation calorimetry): 14.06 ± 0.86 J/K/mol
- molar entropy (49.24 K, Crystal 2, relaxation calorimetry): 14.06 ± 0.86 J/K/mol
- molar entropy (50 K, Crystal 1, combination of DSC and relaxation calorimetry): 14.7 ± 0.9 J/K/mol
- molar entropy (51 K, Crystal 1, combination of DSC and relaxation calorimetry): 15.21 ± 0.93 J/K/mol
- molar entropy (52 K, Crystal 1, combination of DSC and relaxation calorimetry): 15.67 ± 0.95 J/K/mol
- molar entropy (53 K, Crystal 1, combination of DSC and relaxation calorimetry): 16.11 ± 0.98 J/K/mol
- molar entropy (54 K, Crystal 1, combination of DSC and relaxation calorimetry): 16.53 ± 1 J/K/mol
- molar entropy (55 K, Crystal 1, combination of DSC and relaxation calorimetry): 16.95 ± 1 J/K/mol
- molar entropy (60 K, Crystal 1, combination of DSC and relaxation calorimetry): 19.01 ± 1.2 J/K/mol
- molar entropy (65 K, Crystal 1, combination of DSC and relaxation calorimetry): 21.09 ± 1.3 J/K/mol
- molar entropy (70 K, Crystal 1, combination of DSC and relaxation calorimetry): 23.23 ± 1.4 J/K/mol
- molar entropy (80 K, Crystal 1, combination of DSC and relaxation calorimetry): 27.71 ± 1.7 J/K/mol
- molar entropy (90 K, Crystal 1, combination of DSC and relaxation calorimetry): 32.41 ± 2 J/K/mol
- molar entropy (100 K, Crystal 1, combination of DSC and relaxation calorimetry): 37.27 ± 2.3 J/K/mol
- molar entropy (110 K, Crystal 1, combination of DSC and relaxation calorimetry): 42.25 ± 2.6 J/K/mol
- molar entropy (120 K, Crystal 1, combination of DSC and relaxation calorimetry): 47.28 ± 2.9 J/K/mol
- molar entropy (130 K, Crystal 1, combination of DSC and relaxation calorimetry): 52.34 ± 3.2 J/K/mol
- molar entropy (140 K, Crystal 1, combination of DSC and relaxation calorimetry): 57.41 ± 3.5 J/K/mol
- molar entropy (150 K, Crystal 1, combination of DSC and relaxation calorimetry): 62.46 ± 3.8 J/K/mol
- molar entropy (160 K, Crystal 1, combination of DSC and relaxation calorimetry): 67.48 ± 4.1 J/K/mol
- molar entropy (170 K, Crystal 1, combination of DSC and relaxation calorimetry): 72.46 ± 4.4 J/K/mol
- molar entropy (180 K, Crystal 1, combination of DSC and relaxation calorimetry): 77.39 ± 4.7 J/K/mol
- molar entropy (190 K, Crystal 1, combination of DSC and relaxation calorimetry): 82.26 ± 5 J/K/mol
- molar entropy (200 K, Crystal 1, combination of DSC and relaxation calorimetry): 87.07 ± 5.3 J/K/mol
- molar entropy (210 K, Crystal 1, combination of DSC and relaxation calorimetry): 91.83 ± 5.6 J/K/mol
- molar entropy (220 K, Crystal 1, combination of DSC and relaxation calorimetry): 96.51 ± 5.9 J/K/mol
- molar entropy (230 K, Crystal 1, combination of DSC and relaxation calorimetry): 101.1 ± 6.2 J/K/mol
- molar entropy (240 K, Crystal 1, combination of DSC and relaxation calorimetry): 105.7 ± 6.4 J/K/mol
- molar entropy (250 K, Crystal 1, combination of DSC and relaxation calorimetry): 110.2 ± 6.7 J/K/mol
- molar entropy (260 K, Crystal 1, combination of DSC and relaxation calorimetry): 114.6 ± 7 J/K/mol
- molar entropy (270 K, Crystal 1, combination of DSC and relaxation calorimetry): 119 ± 7.3 J/K/mol
- molar entropy (280 K, Crystal 1, combination of DSC and relaxation calorimetry): 123.3 ± 7.5 J/K/mol
- molar entropy (290 K, Crystal 1, combination of DSC and relaxation calorimetry): 127.5 ± 7.8 J/K/mol
- molar entropy (298.15 K, Crystal 1, combination of DSC and relaxation calorimetry): 130.9 ± 8 J/K/mol
- molar entropy (300 K, Crystal 1, combination of DSC and relaxation calorimetry): 131.7 ± 8 J/K/mol
- molar entropy (320 K, Crystal 1, combination of DSC and relaxation calorimetry): 139.9 ± 8.5 J/K/mol
- molar entropy (340 K, Crystal 1, combination of DSC and relaxation calorimetry): 147.9 ± 9 J/K/mol
- molar entropy (360 K, Crystal 1, combination of DSC and relaxation calorimetry): 155.6 ± 9.5 J/K/mol
- molar entropy (380 K, Crystal 1, combination of DSC and relaxation calorimetry): 163.1 ± 9.9 J/K/mol
- molar entropy (400 K, Crystal 1, combination of DSC and relaxation calorimetry): 170.5 ± 10 J/K/mol
- molar entropy (420 K, Crystal 1, combination of DSC and relaxation calorimetry): 177.6 ± 11 J/K/mol
- molar entropy (440 K, Crystal 1, combination of DSC and relaxation calorimetry): 184.6 ± 11 J/K/mol
- molar entropy (460 K, Crystal 1, combination of DSC and relaxation calorimetry): 191.4 ± 12 J/K/mol
- molar entropy (480 K, Crystal 1, combination of DSC and relaxation calorimetry): 198 ± 12 J/K/mol
- molar entropy (500 K, Crystal 1, combination of DSC and relaxation calorimetry): 204.4 ± 12 J/K/mol
- molar entropy (520 K, Crystal 1, combination of DSC and relaxation calorimetry): 210.8 ± 13 J/K/mol
- molar entropy (540 K, Crystal 1, combination of DSC and relaxation calorimetry): 216.9 ± 13 J/K/mol
- molar entropy (560 K, Crystal 1, combination of DSC and relaxation calorimetry): 223 ± 14 J/K/mol
- molar entropy (580 K, Crystal 1, combination of DSC and relaxation calorimetry): 228.9 ± 14 J/K/mol
- molar entropy (600 K, Crystal 1, combination of DSC and relaxation calorimetry): 234.6 ± 14 J/K/mol
- molar entropy (620 K, Crystal 1, combination of DSC and relaxation calorimetry): 240.3 ± 15 J/K/mol
- molar entropy (640 K, Crystal 1, combination of DSC and relaxation calorimetry): 245.8 ± 15 J/K/mol
- molar entropy (660 K, Crystal 1, combination of DSC and relaxation calorimetry): 251.2 ± 15 J/K/mol
- molar entropy (680 K, Crystal 1, combination of DSC and relaxation calorimetry): 256.5 ± 16 J/K/mol
- molar entropy (700 K, Crystal 1, combination of DSC and relaxation calorimetry): 261.8 ± 16 J/K/mol
- molar entropy (720 K, Crystal 1, combination of DSC and relaxation calorimetry): 266.9 ± 16 J/K/mol
- molar entropy (740 K, Crystal 1, combination of DSC and relaxation calorimetry): 271.9 ± 17 J/K/mol
- molar entropy (760 K, Crystal 1, combination of DSC and relaxation calorimetry): 276.8 ± 17 J/K/mol
- Triple point temperature (Crystal 2, Relaxation calorimeter): 49.24 ± 0.77 K
